{
  "source": "paper PMC9099118",
  "about": "(Clinical and Translational Science, 2022)",
  "origin": "cited, not measured here",
  "conditions": "Genuair multidose DPI, HVs; cited from earlier work",
  "data": [
    {"smiles": "O=C(O[C@H]1C[N+]2(CCCOc3ccccc3)CCC1CC2)C(O)(c1cccs1)c1cccs1", "note": "[aclidinium bromide]", "values": [
      {"measurement": "mean emitted lung dose", "result": "approximately 35%"}
    ]}
  ]
}
